Measurements: patent publication US11440909B2, “10H-phenothiazine ferroptosis inhibitor as well as the preparative method and the use thereof” (CHENGDU HENGHAO INVESTMENT CO. LIMITED, priority 2018, dated 2022)

These compounds were tested on fibrosarcoma cell line HT1080 (assay: Ferroptosis screening model (MTT method), Erastin-induced ferroptosis). Conditions: HT1080, ferroptosis inducer Erastin, 72 h, average of three tests, read-out: EC50.
Format: cell-based, human
Procedure, shortened: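 HT1080 cells adhered 24 h, then received compound plus Erastin ([…] final) for 72 h at 37 °C, 5% CO2, in triplicate. Viability by MTT with SDS solubilisation, absorbance at 570 nm; inhibition of ferroptosis fitted to give EC50.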
`C=C(c1cnc(N2CCOCC2)nc1)c1ccc2c(c1)Nc1ccccc1S2` [Compound B51, 4-(5-(1-(10H-phenothiazin-2-yl)ethenyl)pyrimidin-2-yl)morpholine] gave an EC50 of 0.01 µM.
In the case of `CC(c1ccc2c(c1)Nc1ccccc1S2)S(=O)(=O)N1CCN(C(=O)c2ccc3c(c2)OCCO3)CC1` (centres unmarked) [Compound C19, (4-((1-(10H-phenothiazin-2-yl)ethyl)sulfonyl)piperazin-1-yl)(2,3-dihydrobenzo[b][1,4]dioxane-6-yl)ketone], the EC50 is reported as 0.129 µM.
In the case of `CC(c1ccccc1)c1ccc2c(c1)Nc1ccccc1S2` (centres unmarked) [Compound A1, 2-(1-phenylethyl)-10H-phenothiazine], the EC50 is reported as 0.003 µM.

Same assay, conditions: Homo sapiens, HT-1080, 72 h, HT1080, ferroptosis inducer Erastin, 72 h, average of three tests, read-out: EC50
Compound `CC(c1ccc2c(c1)Nc1ccccc1S2)S(=O)(=O)N1CCN(Cc2ccc3c(c2)OCO3)CC1` (centres unmarked) [Compound C5, 2-(1-((4-(benzo[d][1,3]dioxa-5-ylmethyl)piperazin-1-yl)sulfonyl)ethyl)-10H-phenothiazine] has an EC50 of 0.035 µM.
Work on `C=C(c1ccc(C)cc1)c1ccc2c(c1)Nc1ccccc1S2` [Compound B6, 2-(1-(p-methylphenyl)ethenyl)-10H-phenothiazine] yielded an EC50 of 0.045 µM.
`C=C(c1ccc(C#N)c(F)c1)c1ccc2c(c1)Nc1ccccc1S2` [Compound B40, 4-(1-(10H-phenothiazin-2-yl)ethenyl)-2-fluorobenzonitrile] gave an EC50 of 0.041 µM.
In the case of `CC(c1ccc2c(c1)Nc1ccccc1S2)S(=O)(=O)N1CC[C@H](O)C1` (some centres unmarked) [Compound C41], the EC50 is reported as 0.117 µM.
`CC1CN(S(=O)(=O)C(C)c2ccc3c(c2)Nc2ccccc2S3)CC(C)N1` (centres unmarked) [Compound C48, 2-(1-((3,5-dimethylpiperazin-1-yl)sulfonyl)ethyl)-10H-phenothiazine] gave an EC50 of 0.035 µM.
Compound `C=C(c1ccc(S(=O)(=O)NCC2CCOCC2)cc1)c1ccc2c(c1)Nc1ccccc1S2` [Compound B56, 4-(1-(10H-phenothiazin-2-yl)ethenyl)-N-((tetrahydro-2H-pyran-4-yl)methyl)Benzenesulfonamide] has an EC50 of 0.022 µM.
Work on `CC(c1ccc2c(c1)Nc1ccccc1S2)S(=O)(=O)N1CCCC(CO)C1` (centres unmarked) [Compound C38, (1-((1-(10H-phenothiazin-2-yl)ethyl)sulfonyl)piperidin-3-yl)methanol] yielded an EC50 of 0.229 µM.
Compound `C=C(c1ccc(C#N)c(C)c1)c1ccc2c(c1)Nc1ccccc1S2` [Compound B37, 4-(1-(10H-phenothiazin-2-yl)ethenyl)-2-methylbenzonitrile] has an EC50 of 0.014 µM.
`C=C(c1cccc(-c2ccccc2)c1)c1ccc2c(c1)Nc1ccccc1S2` [Compound B29, 2-(1-([1,1′-diphenyl]-3-yl)ethenyl)-10H-phenothiazine] showed an EC50 of 0.041 µM.
`CC(c1cccc(OCc2ccccc2)c1)c1ccc2c(c1)Nc1ccccc1S2` (centres unmarked) [Compound A13, 2-(1-(3-(benzyloxyl)phenyl)ethyl)-10H-phenothiazine] gave an EC50 of 0.025 µM.
In the case of `C=C(c1ccc(S(=O)(=O)NC2CCC2)cc1)c1ccc2c(c1)Nc1ccccc1S2` [Compound B58, 4-(1-(10H-phenothiazin-2-yl)ethenyl)-N-cyclobutylbenzenesulfonamide], the EC50 is reported as 0.066 µM.
`CC(c1cccc(N)c1)c1ccc2c(c1)Nc1ccccc1S2` (centres unmarked) [Compound A7, 3-(1-(10H-phenothiazin-2-yl)ethyl)phenylamine] gave an EC50 of 0.001 µM.
Compound `CC(c1ccc2c(c1)Nc1ccccc1S2)S(=O)(=O)N1CCC(C(N)=O)CC1` (centres unmarked) [Compound C47, 1-((1-(10H-phenothiazin-2-yl)ethyl)sulfonyl)piperidin-4-formamide] has an EC50 of 0.225 µM.
Compound `C=C(c1ccc(CCCC)cc1)c1ccc2c(c1)Nc1ccccc1S2` [Compound B7, 2-(1-(4-butylphenyl)ethenyl)-10H-phenothiazine] has an EC50 of 0.029 µM.
In the case of `C=C(c1ccc(S(=O)(=O)NC2CCN(C)CC2)cc1)c1ccc2c(c1)Nc1ccccc1S2` [Compound B59, 4-(1-(10H-phenothiazin-2-yl)ethenyl)-N-(1-methylpiperidin-4-yl)Benzenesulfonamide], the EC50 is reported as 0.0002 µM.
`CC(c1ccc(OC(F)(F)F)cc1)c1ccc2c(c1)Nc1ccccc1S2` (centres unmarked) [Compound A23, 2-(1-(4-(trifluoromethoxyl)phenyl)ethyl)-10H-phenothiazine] was tested, and the EC50 was 0.02 µM.
Compound `CC(c1ccc2c(c1)Nc1ccccc1S2)S(=O)(=O)N1CCN(c2ccc(C(F)(F)F)cc2)CC1` (centres unmarked) [Compound C56, 2-(1-((4-(4-(trifluoromethyl)phenyl)piperazin-1-yl)sulfonyl)ethyl)-10H-phenothiazine] has an EC50 of 0.213 µM.
`CC(c1cccc(C#N)c1)c1ccc2c(c1)Nc1ccccc1S2` (centres unmarked) [Compound A5, 3-(1-(10H-phenothiazin-2-yl)ethyl)benzonitrile] gave an EC50 of 0.015 µM.
`CC(C)c1cccc(C(C)c2ccc3c(c2)Nc2ccccc2S3)c1` (centres unmarked) [Compound A10, 2-(1-(3-isopropylphenyl)ethyl)-10H-phenothiazine] gave an EC50 of 0.012 µM.
With `CCOc1cccc(C(C)c2ccc3c(c2)Nc2ccccc2S3)c1` (centres unmarked) [Compound A11, 2-(1-(3-ethoxylphenyl)ethyl)-10H-phenothiazine] the EC50 was 0.019 µM.
Work on `CCc1cccc(C(C)c2ccc3c(c2)Nc2ccccc2S3)c1` (centres unmarked) [Compound A9, 2-(1-(3-ethylphenyl)ethyl)-10H-phenothiazine] yielded an EC50 of 0.018 µM.
Work on `Cc1cc(Cl)cc(C(C)c2ccc3c(c2)Nc2ccccc2S3)c1` (centres unmarked) [Compound A62, 2-(1-(3-chloro-5-methylphenyl)ethyl)-10H-phenothiazine] yielded an EC50 of 0.024 µM.
In the case of `C=C(c1ccc(C=O)cc1)c1ccc2c(c1)Nc1ccccc1S2` [Compound B13, 4-(1-(10H-phenothiazin-2-yl)ethenyl)benzaldehyde], the EC50 is reported as 0.03 µM.
With `C=C(c1cccc([N+](=O)[O-])c1)c1ccc2c(c1)Nc1ccccc1S2` [Compound B19, 2-(1-(3-nitrophenyl)ethenyl)-10H-phenothiazine] the EC50 was 0.013 µM.
`CC(c1ccc(C(F)(F)F)cc1)c1ccc2c(c1)Nc1ccccc1S2` (centres unmarked) [Compound A21, 2-(1-(4-(trifluoromethyl)phenyl)ethyl)-10H-phenothiazine] gave an EC50 of 0.006 µM.
Work on `CC(c1ccc2c(c1)Nc1ccccc1S2)S(=O)(=O)N1CCN(c2ccc(F)cc2)CC1` (centres unmarked) [Compound C34, 2-(1-((4-(4-fluorophenyl)piperazin-1-yl)sulfonyl)ethyl)-10H-phenothiazine] yielded an EC50 of 0.233 µM.
`CC(c1cccc(-c2ccccc2)c1)c1ccc2c(c1)Nc1ccccc1S2` (centres unmarked) [Compound A18, 2-(1-([1,1′-diphenyl]-3-yl)ethyl)-10H-phenothiazine] was tested, and the EC50 was 0.07 µM.
`C=C(c1cccc(S(=O)(=O)NC2CCOCC2)c1)c1ccc2c(c1)Nc1ccccc1S2` [Compound B55, 3-(1-(10H-phenothiazin-2-yl)ethenyl)-N-(tetrahydro-2H-pyran-4-yl)benzenesulfonamide] gave an EC50 of 0.012 µM.
`CC(c1ccc2c(c1)Nc1ccccc1S2)S(=O)(=O)N1C2CCC1CC(O)C2` (centres unmarked) [Compound C8, 8-((1-(10H-phenothiazin-2-yl)ethyl)sulfonyl)-8-azabicyclo[3.2.1]-3-octanol] showed an EC50 of 0.046 µM.
Compound `CC(c1ccc(C(F)(F)F)c(Cl)c1)c1ccc2c(c1)Nc1ccccc1S2` (centres unmarked) [Compound A45, 2-(1-(3-chloro-4-(trifluoromethyl)phenyl)ethyl)-10H-phenothiazine] has an EC50 of 0.022 µM.
Compound `C=C(c1cccc(O)c1)c1ccc2c(c1)Nc1ccccc1S2` [Compound B18, 3-(1-(10H-phenothiazin-2-yl)ethenyl)phenol] has an EC50 of 0.04 µM.
Compound `C=C(c1ccc(C(C)C)cc1)c1ccc2c(c1)Nc1ccccc1S2` [Compound B8, 2-(1-(4-isopropylphenyl)ethenyl)-10H-phenothiazine] has an EC50 of 0.04 µM.
Work on `CCOc1ccc(C(C)c2ccc3c(c2)Nc2ccccc2S3)cn1` (centres unmarked) [Compound A75, 2-(1-(6-ethoxylpyridin-3-yl)ethyl)-10H-phenothiazine] yielded an EC50 of 0.023 µM.
With `CC(c1ccc2c(c1)Nc1ccccc1S2)S(=O)(=O)N1CCN(c2ccc([N+](=O)[O-])cc2)CC1` (centres unmarked) [Compound C55, 2-(1-((4-(4-nitrophenyl)piperazin-1-yl)sulfonyl)ethyl)-10H-phenothiazine] the EC50 was 0.07 µM.
In the case of `C=C(c1cccc(N2CCOCC2)c1)c1ccc2c(c1)Nc1ccccc1S2` [Compound B36, 4-(3-(1-(10H-phenothiazin-2-yl)ethenyl)phenyl)morpholine], the EC50 is reported as 0.03 µM.
`C=C(c1cccc(C(C)(C)C)c1)c1ccc2c(c1)Nc1ccccc1S2` [Compound B25, 2-(1-(3-t-butylphenyl)ethenyl)-10H-phenothiazine] showed an EC50 of 0.016 µM.
`C=C(c1cccc(OC(C)C)c1)c1ccc2c(c1)Nc1ccccc1S2` [Compound B23, 2-(1-(3-isopropoxylphenyl)ethenyl)-10H-phenothiazine] gave an EC50 of 0.048 µM.
`CCOc1ccc(C(C)c2ccc3c(c2)Nc2ccccc2S3)cc1` (centres unmarked) [Compound A31, 2-(1-(4-ethoxylphenyl)ethyl)-10H-phenothiazine] showed an EC50 of 0.017 µM.
`C=C(c1ccc(S(=O)(=O)NC2CCOCC2)cc1)c1ccc2c(c1)Nc1ccccc1S2` [Compound B52, 4-(1-(10H-phenothiazin-2-yl)ethenyl)-N-(tetrahydro-2H-pyran-4-yl)benzenesulfonamide] was tested, and the EC50 was 0.011 µM.
In the case of `COc1ccc2cc(C(C)c3ccc4c(c3)Nc3ccccc3S4)ccc2c1` (centres unmarked) [Compound A69, 2-(1-(6-methoxylnaphthalen-2-yl)ethyl)-10H-phenothiazine], the EC50 is reported as 0.003 µM.
`CC(c1ccc2c(c1)CCO2)c1ccc2c(c1)Nc1ccccc1S2` (centres unmarked) [Compound A72, 2-(1-(2,3-dihydrobenzofuran-5-yl)ethyl)-10H-phenothiazine] gave an EC50 of 0.014 µM.
With `CC(=O)N1CCN(S(=O)(=O)C(C)c2ccc3c(c2)Nc2ccccc2S3)CC1` (centres unmarked) [Compound C15, 1-(4-((1-(10H-phenothiazin-2-yl)ethyl)sulfonyl)piperazin-1-yl)-1-ethanone] the EC50 was 0.132 µM.
In the case of `COC(=O)c1ccc(C(C)c2ccc3c(c2)Nc2ccccc2S3)cc1Cl` (centres unmarked) [Compound A53, 4-(1-(10H-phenothiazin-2-yl)ethyl)-2-chlorobenzoic acid methyl ester], the EC50 is reported as 0.02 µM.
`CC(C)N1CCN(S(=O)(=O)C(C)c2ccc3c(c2)Nc2ccccc2S3)CC1` (centres unmarked) [Compound C4, 2-(1-((4-isopropylpiperazin-1-yl)sulfonyl)ethyl)-10H-phenothiazine] was tested, and the EC50 was 0.029 µM.
